Experimental data as given in publication PMC8450399, “Expression Profiles and Functional Characterization of Chemosensory Protein 15 (HhalCSP15) in the Brown Marmorated Stink Bug Halyomorpha halys” (Frontiers in Physiology, 2021).

Assays:
HhalCSP15 = assay: Fluorescence competitive binding assay with 1-NPN as fluorescent probe; parameters: species or system Halyomorpha halys; conditions: for Ki: Ki=IC50/(1+[1-NPN]/K1-NPN), HhalCSP15 and 1-NPN 2 μM, pH 7.4, triplicate, read-out: Ki, dissociation constant; for binding ability with HhalCSP15 (in words): fluorescence binding experiments
Method: The binding abilities of HhalCSP15 to 43 volatiles were measured on an F-380 fluorescence spectrophotometer (Tianjin, China) using 10-nm slits and a 1-cm light path. As the fluorescent probe, N-phenyl-1-naphthylamine (1-NPN) was excited at the wavelength of 337nm, and emission spectra were recorded between 390 and 530nm. To measure the affinity of 1-NPN to the HhalCSP15 protein, a 2-μM solution of purified protein in 50-mM Tris-HCl at pH 7.4 was titrated with aliquots of 1-mM 1-NPN dissolved in methanol to final concentrations ranging from 2 to 16μM.
[…] Dissociation constants of the competitors were calculated by the equation Ki=IC50/(1+[1-NPN]/K1-NPN), where IC50 is the concentration of ligands halving the initial fluorescence value of 1-NPN, [1-NPN] is the free concentration of 1-NPN, and K1-NPN is the dissociation constant of the HhalCSP15/1-NPN complex.

[1] = system: Halyomorpha halys antennae; assay: Electroantennography (EAG) recordings; conditions: 10 μl of 100 μg/μl in paraffin oil; for EAG response of antennae (in words; comparison among nymphs, females, males): third instar nymphs and 1- to 3-day old male and female adults, solvent-corrected
Method: The antennal responses of H. halys to the three ligands of […]15 were evaluated using conventional EAG methods as described in previous study ([Wang et al., 2020]). Briefly, antennae of the third instar nymphs and 1- to 3-day old male and female adults were dissected, and a few terminal segments at the distal end were excised. The treated antennae were attached to electrode holders with electrode gel. Ten microliters of tested chemicals (100μg/μl, diluted in paraffin oil) were applied to filter paper strips (1.0cm×2.0cm) and inserted into a glass Pasteur pipette as a cartridge. The test cartridge was connected to a stimulus controller (CS-55; Syntech, Kirchzarten, Germany) that generated a 0.5s stimulus at 30s intervals, with a constant flow of 10ml/s. The signals generated by the antennae were recorded using EAG Pro (Syntech). A blank stimulus (solvent control) was presented before testing the compound. For each compound, EAG responses were recorded from eight antennae of different insects. The EAG responses elicited by the test odor stimuli were corrected by subtracting EAG response from the solvent control. The corrected EAG data were statistically analyzed using ANOVA followed by Tukey's HSD test.

## CC(=O)/C=C/C1=C(C)CCCC1(C)C [β-Ionone]
HhalCSP15
  Ki: 11.9 ± 0.6 µM
  binding ability with HhalCSP15 (in words): strong binding abilities
[1]
  EAG response of antennae (in words; comparison among nymphs, females, males): elicit an EAG response in both nymph and adult H. halys antennae
[1]; listed as β-ionone
  EAG response of antennae (in words; comparison among nymphs, females, males): significantly greater responses in females compared with males and nymphs

## c1ccc(Nc2cccc3ccccc23)cc1 [1-NPN, N-phenyl-1-naphthylamine, reference compound]
HhalCSP15; 2 μM protein in 50 mM Tris-HCl pH 7.4 titrated with 1-NPN 2 to 16 μM, read-out: dissociation constant of the HhalCSP15/1-NPN complex
  Kd: 9.36 µM

## CCC\C=C/C=C/C=C/C(=O)OC [Methyl (2E,4E,6Z)-decatrienoate]
HhalCSP15
  Ki: 9.6 ± 0.4 µM
  binding ability with HhalCSP15 (in words): identified as a binding ligand
[1]
  EAG response of antennae (in words; comparison among nymphs, females, males): significantly greater EAG responses in adults compared with nymphs

## CCCCCCCCCCCCC [Tridecane]
HhalCSP15
  binding ability with HhalCSP15 (in words): could not bind

## CC/C=C\CCOC(=O)c1ccccc1 [cis-3-Hexen-1-yl benzoate]
HhalCSP15
  Ki: 10.5 ± 0.8 µM
  binding ability with HhalCSP15 (in words): strong binding abilities
[1]; nymphs and adults
  EAG response compared among ligands (in words): highest EAG response among all ligands in both nymphs and adults
[1]; listed as Cis-3-hexen-1-yl benzoate
  EAG response of antennae (in words; comparison among nymphs, females, males): significantly greater responses in females compared with males and nymphs
[1]; listed as cis-3-hexen-1-yl benzoate
  EAG response of antennae (in words; comparison among nymphs, females, males): elicit an EAG response in both nymph and adult H. halys antennae

## CCCCCCC/C=C/C=O [trans-2-Decenal]
HhalCSP15
  binding ability with HhalCSP15 (in words): could not bind
